Experiments:
LS180 = experiment: GI50 growth inhibition, CyQUANT, LS180; assay type: cell-based; conditions: Homo sapiens, LS180 cells, 120 to 168 hours
Protocol: (§1) SKCO1, LS180, and LS174T cell lines were purchased from ATCC. CW2 cell line was purchased from Riken. GP2D cell line was purchased from Sigma/ECACC. All cell lines were cultured in manufacturer's recommended media at 37° C., 5% CO2. Briefly, cells were suspended in 200 μL of media and seeded at 300 to 1,800 cells per well in tissue culture treated 96-well plates with black walls and clear bottom. Plates were incubated overnight and initial (T0) read was performed the following day using CyQUANT Direct Cell Proliferation Assay Kit (Thermo Fisher Scientific) according to manufacturer's protocol. All compounds were solubilized in DMSO and prepared at 3-fold serial dilution, using 9 points starting at 30 μM as highest concentration, administered to cells and incubated for 120 to 168 hours, at which point CyQUANT assay measurement was performed using Acumen Cellista instrument (Ex/Em 480/520 nm). Media-only wells were used as blank, and 0.3% DMSO was used as DMSO-treated cell control. Growth inhibition (percent response) was calculated using the following formula in Excel: “=if ([Compound treated Day N]>[Untreated Day 0, AVG], ([Compound treated Day N]−[Untreated Day 0, AVG])/([Untreated Day N]−[Untreated Day 0, AVG])*100, ([Compound Treated Day N]−[Untreated Day 0, AVG])/([Untreated Day 0, AVG])*100)”. GI50 is the response corresponding to the 50% of untreated control.
(§2) GI50 data are reported in Tables 4a, 4b, 4c, 4d, and 4e for compounds in Table 1. In Tables 4a, 4b, 4c, 4d, and 4e below, According to the code, A represents a GI50 value of ≤0.1 μM, B represents a GI50 value>0.1 μM and ≤1 μM, C represents an GI50 value>1 μM.

CRBN/DDB1 = CRBN/DDB1 (Homo sapiens, UniProt Q96SW2); experiment: HTRF binding assay (thalidomide probe displacement from CRBN/DDB1); conditions: CRBN/DDB1 2.5 nM, Cy5-Thalidomide 100 nM, 30 min; geometric mean; read-out: HTRF_Thali_Disp_DR—geo_IC50
How it was run: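 Displacement of Cy5-thalidomide probe (100 nM) from CRBN/DDB1 (2.5 nM) with anti-His Tb cryptate in 20 mM HEPES, 20 mM NaCl, 0.2 mM TCEP, 0.2 mM EDTA, 0.005% Tween20; 10-point 1:3 series, 30 min ambient. HTRF 665/620 ratio; IC50 by 4-parameter fit, Ki via Cheng-Prusoff.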

LS174T = experiment: GI50 growth inhibition, CyQUANT, LS174T; assay type: cell-based; conditions: Homo sapiens, LS174T cells, 120 to 168 hours
Protocol: as §1, §2

Sequence of CRBN/DDB1 (Q96SW2 whole entry): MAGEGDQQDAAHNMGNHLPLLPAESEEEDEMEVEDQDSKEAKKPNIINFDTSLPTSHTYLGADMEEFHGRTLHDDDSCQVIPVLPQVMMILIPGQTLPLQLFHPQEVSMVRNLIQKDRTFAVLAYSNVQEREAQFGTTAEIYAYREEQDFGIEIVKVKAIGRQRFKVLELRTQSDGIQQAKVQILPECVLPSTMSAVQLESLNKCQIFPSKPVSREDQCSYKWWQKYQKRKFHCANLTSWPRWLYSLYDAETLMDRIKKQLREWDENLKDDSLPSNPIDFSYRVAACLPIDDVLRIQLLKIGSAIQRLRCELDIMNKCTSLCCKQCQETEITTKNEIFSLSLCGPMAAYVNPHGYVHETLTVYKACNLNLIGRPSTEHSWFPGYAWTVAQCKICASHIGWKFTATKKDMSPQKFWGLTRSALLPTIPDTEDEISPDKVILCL
Sequence of CRBN/DDB1 (Q16531 whole entry partner): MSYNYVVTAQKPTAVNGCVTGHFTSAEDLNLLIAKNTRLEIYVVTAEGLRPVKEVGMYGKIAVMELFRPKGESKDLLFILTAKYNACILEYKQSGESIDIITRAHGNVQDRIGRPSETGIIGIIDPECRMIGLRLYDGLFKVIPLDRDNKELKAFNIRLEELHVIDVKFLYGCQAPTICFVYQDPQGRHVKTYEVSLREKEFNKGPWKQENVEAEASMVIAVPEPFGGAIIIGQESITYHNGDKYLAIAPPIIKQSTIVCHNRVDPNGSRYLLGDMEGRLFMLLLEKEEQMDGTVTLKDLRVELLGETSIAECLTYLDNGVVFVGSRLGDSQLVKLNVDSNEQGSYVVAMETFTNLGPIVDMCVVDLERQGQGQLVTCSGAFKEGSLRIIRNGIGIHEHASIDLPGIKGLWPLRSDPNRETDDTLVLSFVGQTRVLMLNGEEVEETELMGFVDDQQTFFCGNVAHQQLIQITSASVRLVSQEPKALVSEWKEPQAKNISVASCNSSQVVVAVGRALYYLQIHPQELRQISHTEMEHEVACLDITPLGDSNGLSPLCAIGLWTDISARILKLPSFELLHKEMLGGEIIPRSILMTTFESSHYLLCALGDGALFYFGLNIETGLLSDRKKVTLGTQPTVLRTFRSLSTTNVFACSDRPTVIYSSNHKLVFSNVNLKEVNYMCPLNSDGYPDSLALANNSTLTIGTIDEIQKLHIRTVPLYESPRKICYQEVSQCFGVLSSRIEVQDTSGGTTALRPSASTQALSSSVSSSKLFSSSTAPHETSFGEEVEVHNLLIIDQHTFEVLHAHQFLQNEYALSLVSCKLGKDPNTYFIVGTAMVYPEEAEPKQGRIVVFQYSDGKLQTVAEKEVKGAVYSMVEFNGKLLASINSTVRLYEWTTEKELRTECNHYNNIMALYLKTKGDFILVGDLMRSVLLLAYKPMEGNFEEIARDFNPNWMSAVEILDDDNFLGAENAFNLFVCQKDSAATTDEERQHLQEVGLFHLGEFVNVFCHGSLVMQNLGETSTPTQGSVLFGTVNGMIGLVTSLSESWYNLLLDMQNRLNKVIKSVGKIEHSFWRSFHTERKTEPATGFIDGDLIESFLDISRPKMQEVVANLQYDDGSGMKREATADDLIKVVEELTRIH

| SMILES | GI50 (LS180) [µM] | IC50 (CRBN/DDB1) [µM] | GI50 (LS174T) [µM] |
| --- | --- | --- | --- |
| O=C1CCC(N2Cc3cc(NC(=O)c4ccc(Cl)cc4)ccc3C2=O)C(=O)N1 (stereo not drawn) [Compound 147] | > 1 | 0.1 to 1 | > 1 |
| O=C1CCC(N2Cc3cc(NC(=O)c4ncn(-c5ccccc5)c4C(F)(F)F)ccc3C2=O)C(=O)N1 (stereo not drawn) [Compound 154, N-(2-(2,6-dioxopiperidin-3-yl)-1-oxoisoindolin-5-yl)-1-phenyl-5-(trifluoromethyl)-1H-imidazole-4-carboxamide] | 0.1 to 1 | 0.1 to 1 | 0.1 to 1 |

Reference: US20250115582A1, “MOLECULAR GLUE DEGRADERS AND METHODS OF USING THE SAME” (Monte Rosa Therapeutics, Inc., priority 2022, published 2025)
